Data: patent publication US9795140B2, “Molecules having pesticidal utility, and intermediates, compositions, and processes, related thereto” (priority 2015, dated 2017)

Key:
Assay type in all cases: in vivo
[1] = tested on: Cabbage Looper (Trichoplusia ni, TRIPNI); experiment: Bioassay on Cabbage Looper (CL), 128-well diet tray assay; settings: 168 h, 50 μg/cm^2 on artificial diet, second instar larvae, 25° C., five to seven days, average of eight wells, read-out: CL % Control (or Mortality) rating
Method: (§1) Certain molecules disclosed in this document were tested against BAW and CL using procedures described in the following examples. In the reporting of the results, the “BAW & CL Rating Table” was used (See Table Section).
Bioassays on CL were conducted using a 128-well diet tray assay, one to five second instar CL larvae were placed in each well (3 mL) of the diet tray that had been previously filled with 1 mL of artificial diet to which 50 μg/cm^2 of the test molecule (dissolved in 50 μL of 90:10 acetone-water mixture) had been applied (to each of eight wells) and then allowed to dry. Trays were covered with a clear self-adhesive cover, vented to allow gas exchange, and held at 25° C., 14:10 light-dark for five to seven days. Percent mortality was recorded for the larvae in each well; activity in the eight wells was then averaged. The results are indicated in the table entitled “Table ABC: Biological Results” (See Table Section).

[2] = tested on: Beet Armyworm (Spodoptera exigua, LAPHEG); experiment: Bioassay on Beet Armyworm (BAW), 128-well diet tray assay; settings: 168 h, 50 μg/cm^2 on artificial diet, second instar larvae, 25° C., five to seven days, average of eight wells, read-out: BAW % Control (or Mortality) rating
Method: as §1
Bioassays on BAW were conducted using a 128-well diet tray assay. One to five second instar BAW larvae were placed in each well (3 mL) of the diet tray that had been previously filled with approximately 1.5 mL of artificial diet to which 50 μg/cm^2 of the test molecule (dissolved in 50 μL of 90:10 acetone-water mixture) had been applied (to each of eight wells) and then allowed to dry. Trays were covered with a clear self-adhesive cover, vented to allow gas exchange, and held at 25° C., 14:10 light-dark for five to seven days. Percent mortality was recorded for the larvae in each well; activity in the eight wells was then averaged. The results are indicated in the table entitled “Table ABC: Biological Results” (See Table Section).

[3] = tested on: Yellow Fever Mosquito (Aedes aegypti, AEDSAE); experiment: Bioassay on Yellow Fever Mosquito (YFM) larvae, 96-well plate; settings: about 1 day-old larvae, room temperature, 3 days, scored on mortality
Method: Certain molecules disclosed in this document were tested against YFM using procedures described in the following paragraph. In the reporting of the results, the “GPA & YFM Rating Table” was used (See Table Section).
Master plates containing 400 μg of a molecule dissolved in 100 μL of dimethyl sulfoxide (DMSO) (equivalent to a 4000 ppm solution) are used. A master plate of assembled molecules contains 15 μL per well. To this plate, 135 μL of a 90:10 water/acetone mixture is added to each well. A robot is programmed to dispense 15 μL aspirations from the master plate into an empty 96-well shallow plate (“daughter” plate). There are 6 reps (“daughter” plates) created per master. The created “daughter” plates are then immediately infested with YFM larvae.
The day before plates are to be treated, mosquito eggs are placed in Millipore water containing liver powder to begin hatching (4 g. into 400 mL). After the “daughter” plates are created using the robot, they are infested with 220 μL of the liver powder/larval mosquito mixture (about 1 day-old larvae). After plates are infested with mosquito larvae, a non-evaporative lid is used to cover the plate to reduce drying. Plates are held at room temperature for 3 days prior to grading. After 3 days, each well is observed and scored based on mortality. The results are indicated in the table entitled “Table ABC: Biological Results” (See Table Section).

Structure (SMILES)	mortality at 50 µg/cm2 [1] [%]	mortality at 50 µg/cm2 [2] [%]	YFM % Control (or Mortality) rating [3]
O=C(NCc1cccnc1)c1cc(NC(=O)[C@H]2[C@H](c3cc(Cl)c(Cl)c(Cl)c3)C2(Cl)Cl)ccc1Cl (relative stereo) [F7, trans-2-Chloro-5-(2,2-dichloro-3-(3,4,5-trichlorophenyl)cyclopropane-1-carboxamido)-N-(pyridin-3-ylmethyl)benzamide]	50 to 100	50 to 100	A (80-100)
O=C(NCCC1CC1)c1cc(NC(=O)C2C(c3cc(Cl)cc(Cl)c3)C2(Cl)Cl)ccc1Cl (stereo not drawn) [F24, trans-N-2-Chloro-N-(2-cyclopropylethyl)-5-(2,2-dichloro-3-(3,5-dichlorophenyl)cyclopropane-1-carboxamido)benzamide]	50 to 100	50 to 100	A (80-100)
O=C(NCC(F)(F)F)c1cc(NC(=O)[C@H]2[C@H](c3ccc(C(F)(F)F)c(F)c3)C2(Cl)Cl)ccc1Cl (relative stereo) [F112, 2-Chloro-5-(trans-2,2-dichloro-3-(3-fluoro-4-(trifluoromethyl)phenyl)cyclopropane-1-carboxamido)-N-(2,2,2-trifluoroethyl)benzamide]	50 to 100	50 to 100	A (80-100)
O=C(NCCN1CCNC1=O)c1cc(NC(=O)[C@H]2[C@H](c3cc(Cl)cc(Cl)c3)C2(Cl)Cl)ccc1Cl (relative stereo) [F79, trans-2-Chloro-5-(2,2-dichloro-3-(3,5-dichlorophenyl)cyclopropane-1-carboxamido)-N-(2-(2-oxoimidazolidin-1-yl)ethyl)benzamide]	50 to 100	50 to 100	A (80-100)
O=C(NCCC1CC1)c1cc(NC(=O)C2C(c3ccc(Cl)c(Cl)c3)C2(Cl)Cl)ccc1Cl (stereo not drawn) [F25, trans-N-2-Chloro-N-(2-cyclopropylethyl)-5-(2,2-dichloro-3-(3,4-dichlorophenyl)cyclopropane-1-carboxamido)benzamide]	50 to 100	50 to 100	A (80-100)
O=C(NCC(F)(F)F)c1cc(NC(=O)[C@H]2[C@H](c3ccc(C(F)F)cc3)C2(Cl)Cl)ccc1Cl (relative stereo) [F135, 2-Chloro-5-(trans-2,2-dichloro-3-(4-(difluoromethyl)phenyl)cyclopropane-1-carboxamido)-N-(2,2,2-trifluoroethyl)benzamide]	50 to 100	0	A (80-100)
O=C(NCCCl)c1cc(NC(=O)[C@H]2[C@H](c3cc(Cl)cc(Cl)c3)C2(Cl)Cl)ccc1Cl (relative stereo) [F51, trans-2-Chloro-N-(2-chloroethyl)-5-(2,2-dichloro-3-(3,5-dichlorophenyl)cyclopropane-1-carboxamido)benzamide]	50 to 100	50 to 100	B (More than 0-Less than 80)
COCCNC(=O)c1cc(NC(=O)[C@H]2[C@H](c3cc(Cl)cc(Cl)c3)C2(Cl)Cl)ccc1Cl (relative stereo) [F53, trans-2-Chloro-5-(2,2-dichloro-3-(3,5-dichlorophenyl)cyclopropane-1-carboxamido)-N-(2-methoxyethyl)benzamide]	50 to 100	50 to 100	B (More than 0-Less than 80)
CCNC(=O)c1cc(NC(=O)[C@H]2[C@H](c3cc(Cl)cc(Cl)c3)C2(Cl)Cl)cc(Cl)c1Cl (relative stereo) [F91, trans-2,3-Dichloro-5-(2,2-dichloro-3-(3,5-dichlorophenyl)cyclopropane-1-carboxamido)-N-ethylbenzamide]	50 to 100	50 to 100	A (80-100)
O=C(NCc1ccccn1)c1cc(NC(=O)[C@H]2[C@H](c3cc(Cl)cc(Cl)c3)C2(Cl)Cl)ccc1Cl (relative stereo) [F8, trans-2-Chloro-5-(2,2-dichloro-3-(3,5-dichlorophenyl)cyclopropane-1-carboxamido)-N-(pyridin-2-ylmethyl)benzamide]	50 to 100	50 to 100	
O=C(NCC(F)(F)F)c1cc(NC(=O)C2C(c3cc(F)c(F)c(F)c3)C2(Cl)Cl)ccc1Cl (stereo not drawn) [F127, 2-Chloro-5-cis-(2,2-dichloro-3-(3,4,5-trifluorophenyl)cyclopropane-1-carboxamido)-N-(2,2,2-trifluoroethyl)benzamide]			A (80-100)
O=C(NCC(F)(F)F)c1cc(NC(=O)[C@H]2[C@H](c3cc(Cl)cc(Cl)c3)C2(Cl)Cl)cc(Cl)c1Cl (relative stereo) [F93, trans-2,3-Dichloro-5-(2,2-dichloro-3-(3,5-dichlorophenyl)cyclopropane-1-carboxamido)-N-(2,2,2-trifluoroethyl)benzamide]	50 to 100	50 to 100	
C#CCN(C)C(=O)c1cc(NC(=O)[C@H]2[C@H](c3cc(Cl)cc(Cl)c3)C2(Cl)Cl)ccc1Cl (relative stereo) [F65, trans-2-Chloro-5-(2,2-dichloro-3-(3,5-dichlorophenyl)cyclopropane-1-carboxamido)-N-methyl-N-(prop-2-yn-1-yl)benzamide]	50 to 100	50 to 100	
C[S+]([O-])CCNC(=O)c1cc(NC(=O)[C@H]2[C@H](c3cc(Cl)cc(Cl)c3)C2(Cl)Cl)ccc1Cl (relative stereo) [F74, trans-2-chloro-5-(2,2-dichloro-3-(3,5-dichlorophenyl)cyclopropane-1-carboxamido)-N-(2-(methylsulfinyl)ethyl)benzamide]	50 to 100	50 to 100	
O=C(NCc1ccccn1)c1cc(NC(=O)[C@H]2[C@H](c3cc(Cl)c(Cl)c(Cl)c3)C2(Cl)Cl)ccc1Cl (relative stereo) [F9, trans-2-Chloro-5-(2,2-dichloro-3-(3,4,5-trichlorophenyl)cyclopropane-1-carboxamido)-N-(pyridin-2-ylmethyl)benzamide]	50 to 100	50 to 100	
CN(C)CCCCNC(=O)c1cc(NC(=O)[C@H]2[C@H](c3cc(Cl)cc(Cl)c3)C2(Cl)Cl)ccc1Cl (relative stereo) [F50, trans-2-Chloro-5-(2,2-dichloro-3-(3,5-dichlorophenyl)cyclopropane-1-carboxamido)-N-(4-(dimethylamino)butyl)benzamide]	50 to 100	0	
O=C(CNC(=O)c1cc(NC(=O)[C@H]2[C@H](c3cc(Cl)cc(Cl)c3)C2(Cl)Cl)ccc1Cl)NCC(F)(F)F (relative stereo) [F5, trans-2-Chloro-5-(2,2-dichloro-3-(3,5-dichlorophenyl)cyclopropane-1-carboxamido)-N-(2-oxo-2-((2,2,2-trifluoroethyl)amino)ethyl)benzamide]	50 to 100	50 to 100	
C=CCONC(=O)c1cc(NC(=O)[C@H]2[C@H](c3cc(Cl)c(Cl)c(Cl)c3)C2(Cl)Cl)ccc1Cl (relative stereo) [F11, trans-N-(Allyloxy)-2-chloro-5-(2,2-dichloro-3-(3,4,5-trichlorophenyl)cyclopropane-1-carboxamido)benzamide]	50 to 100	50 to 100	
CN(CC#N)C(=O)c1cc(NC(=O)[C@H]2[C@H](c3cc(Cl)cc(Cl)c3)C2(Cl)Cl)ccc1Cl (relative stereo) [F66, trans-2-Chloro-N-(cyanomethyl)-5-(2,2-dichloro-3-(3,5-dichlorophenyl)cyclopropane-1-carboxamido)-N-methylbenzamide]	50 to 100	50 to 100	
C=CCONC(=O)c1cc(NC(=O)[C@H]2[C@H](c3cc(Cl)cc(Cl)c3)C2(Cl)Cl)ccc1Cl (relative stereo) [F10, trans-N-(Allyloxy)-2-chloro-5-(2,2-dichloro-3-(3,5-dichlorophenyl)cyclopropane-1-carboxamido)benzamide]	50 to 100	50 to 100	
